Ends that are not written are not given here.
Tests used:
[1] = system: rat model of laser-induced wet AMD; assay: Laser-induced wet AMD, rat model; type: in vivo; conditions: fluorescein angiography day 14; vs PBS vehicle
Excerpt: Further, the effect of 7-mer or 7-mer DD on rat model of laser-induced wet AMD was also investigated. Fluorescein angiography images were obtained on day 14 after laser burn, and the images were subsequently scored. Results are depicted in FIG. 14.

HUVECs [2] = assay: Apoptosis assay (annexin V-FITC); type: cell-based; conditions: treatment for 16 hrs; annexin V-FITC staining
Method: The percentage of apoptotic HUVEC cells was assayed using TACS annexin V-FITC kit. The percentage of annexin V-positive cells was determined using in situ staining according to the manufacturer's instruction. The cell number was determined by counterstaining with Hoechst 33342. The nuclei in ten randomly selected fields of the three different chambers (˜7200 cells) were counted. Specimens were examined and photographed on a Zeiss epifluorescence microscope (×100, 10 fields/sample). Pictures were recorded on Zeiss software.

diabetic rats = assay: Vascular abnormalities in the retina of diabetic rats; type: in vivo, Sprague-Dawley rats; conditions: intravitreal injection
Method: Diabetes was induced in male Sprague-Dawley rats after fasting overnight by a single intraperitoneal injection of STZ (65 mg/kg body weight). STZ was freshly prepared in 0.1 M citrate buffer (pH 4.5). Rats with blood glucose levels >350 mg/dl for 5 days after receiving STZ were considered to be in diabetic status and were termed diabetic rats hereinafter. Blood glucose levels were checked every 2 days a blood glucose monitor. Animals that served as non-diabetic controls received an equivalent amount of citrate buffer alone. For peptide treatment, diabetic rats were anesthetized by an intraperitoneal injection of a Xylazine (10 mg/kg), and then intravitreally injected with 3 μl of the present synthetic peptide (10 mM) into one eye and an equal volume of PBS was injected into the contralateral eye (n=3-6 per group). After peptide treatment for 24 h, measurement of retinal vascular leakage by BSA-FITC (100 mg/kg body weight) was conducted in according to procedures described above.

[3] = system: laser-induced wet AMD mouse model; assay: Laser induced choroidal neovascularization (CNV), mouse; type: in vivo, C57BL/6 mice; conditions: 10 mg/kg intraperitoneal twice a day for 10 days; vs vehicle
Method: The 8-week-old female C57BL/6 mice were anaesthetized by injecting intraperitoneally a mixture of zoletil (6 mg/kg) and xylazine (3 mg/kg). The retina was viewed through a slit lamp microscope, and the optic nerve head was placed in the center of the microscope field. Both eyes received 3 or 4 laser burns around the optic nerve head using the diode laser (lesion diameter 50 μm; duration 100 ms; energy 250 mW). The formation of a blister indicates rupture of the Bruch's membrane after laser application. DMSO Vehicle or 7-mer (10 mg/kg; n≥10 per peptide) were administered by intraperitoneal injections twice a day for 10 days. Fluorescein fundus images were taken about 5 minutes after intraperitoneal injection of 0.1 mL of 100 mg/ml Fluorescein (10% w/v). During this period, the size of fluorescein leakage spots was relatively stable. The leakage of each CNV lesion was graded by a retina specialist according to the method described by Sheets et al. (Molecular Vision 2010; 16:320-329). […]
Wet type age-related macular degeneration (AMD) is characterized by extensive growth of new vessels in retina. […] Newly formed microvessels with clear fluorescein leakage in retina were assessed by fundus fluorescein angiography 10 days post laser treatment, and results are provided in the photographs of FIG. 13.

HUVECs [4] = assay: Endothelial cell capillary-like tube formation assay; type: cell-based
[5] = system: VEGF-induced corneal neovascularization; assay: Mouse corneal angiogenesis assay; type: in vivo, C57BL/6 mice; conditions: VEGF 200 ng; peptide 2.5 μg in micropellet
Method: Briefly, corneal micropockets were created on 6-week-old C57BL/6 mice by use of a needle. A micropellet of sucrose aluminum sulfate and hydron polymer containing 200 ng VEGF with or without 2.5 μg peptide was plated into each corneal pocket. Eyes were then photographed by a slit-lamp biomicroscope on day 7 after micropellet implantation. Ingrowth of the blood vessels into avascular cornea toward pellet was scored as positive response. The results were reported as positive corneas of total implant.

Question: With “NH2-Asp-Leu-Tyr-Arg-Val-Arg-Ser-COOH (DLYRVRS; not fully specified (N-terminus, C-terminus); printed as NH2-Asp-Leu-Tyr-Arg-Val-Arg-Ser-COOH) [7-mer]” as the substance, how does the “lesions caused by the laser burn” value [1] read?
Answer: significantly ameliorated

Question: What about the “percentage of apoptotic HUVECs” value (HUVECs [2]) of the same substance?
Answer: 32.4±3.8%

Question: And the “levels of leaked FITC-BSA in entire retina vs vehicle” value (diabetic rats)?
Answer: 0.43±0.07 fold

Question: And the “number of vascular lesion in retina” value (diabetic rats; 24 h)?
Answer: 9.2±2.15

Question: What about the “CNV lesion grades, severity distribution” value [3] of the same substance?
Answer: lower severity distribution of CNV

Question: And the “effect on VEGF-induced tube formation” value (HUVECs [4]; HUVECs, VEGF, 6 hrs)?
Answer: inhibited

Question: What about the “Tube length (Fold)” value (HUVECs [4]; VEGF (10 ng/mL) + 25 μM peptide, vs untreated HUVECs) of the same substance?
Answer: 1.24 ± 0.23 Fold

Question: What about the “VEGF-induced neovascularization in the cornea” value [5] of the same substance?
Answer: completely abolished

Reference: patent US10463709B2, “Short synthetic peptide for treating diseases and/or conditions related to angiogenesis” (MacKay Memorial Hospital, priority 2015, dated 2019)
